Test results taken from the NIST ThermoML archive (doi:10.1016/j.fluid.2010.01.025).
± gives the expanded uncertainty stated by the source.

Columns and labels:
[1] = Crystal; DTA
[2] = Molar enthalpy of transition or fusion; details: Crystal; DSC

With `CCCC[n+]1cccc(C)c1.Cc1ccc(S(=O)(=O)[O-])cc1` [1-butyl-3-methylpyridinium 4-methylbenzenesulfonate] the Normal melting temperature [1] was 42.7 ± 0.4 °C and the “Molar enthalpy of transition or fusion” value [2] was 2.71 ± 0.0837 kcal/mol.
